Source: patent US12594349B2, “Compositions and methods for the targeting of PCSK9” (Scribe Therapeutics Inc., priority 2022, dated 2026)
Read-outs that look alike come from different tables or passages of the source.

Assays:
[1] = system: HBEGF; format: cell-based, human; settings: for log 2(fold change) of abundance before and after selection: HEK293T, dCasX491 fusion, scaffold 174 spacer 34.28, 2 ng/mL diphtheria toxin for 48 hours
[2] = system: human PCSK9 locus; assay: Secreted PCSK9 by ELISA in Huh7 cells transfected with mRNA and gRNA; format: cell-based; settings: Huh7 cells; for Secreted PCSK9: 6 days post-transfection, normalized to total cell count; for Percent reduction in PCSK9 secretion / Average percent reduction in PCSK9 secretion: LTRP5-ADD-ZIM3 mRNA; for Percent reduction in PCSK9 secretion: day 6, relative to non-targeting gRNA control; for Average percent reduction in PCSK9 secretion: day 6, averaged from the two doses
Procedure: To assess PCSK9 secretion, seeded Huh7 cells were transfected with mRNA encoding a catalytically-active CasX 676, dXR1, or LTRP5-ADD-ZIM3 and a gRNA with scaffold 316 and spacer targeting either the B2M or PCSK9 locus. Media supernatant was harvested at 6, 18, 36, and 87 days post-transfection to assess level of PCSK9 secretion by ELISA. Levels of PCSK9 secretion were normalized to total cell count. As an additional control, PCSK9 secretion was also measured in the media supernatant harvested from wells containing untreated, naïve cells.
The following three human hepatocyte cancer cell lines were used in this experiment: HepG2 cells, Hep3B cells, and Huh7 cells. ˜15,000 cells of each cell line were seeded per well; the next day, seeded cells were transfected with mRNA encoding a catalytically-active CasX 676, dXR1, or LTRP5-ADD-ZIM3 and a gRNA with scaffold 316 and spacer targeting either the B2M or PCSK9 locus (see Table 23 for specific spacers and sequences). Media supernatant was harvested at 4 days post-transfection to assess level of PCSK9 secretion by ELISA, and levels of PCSK9 secretion were normalized to total cell count and illustrated in FIGS. 11A-11C. Culturing of treated Huh7 cells continued, and media supernatant was harvested at 14 and 27 days post-transfection for measuring PCSK9 secretion by ELISA. As an additional experimental control, PCSK9 secretion was also measured in the media supernatant harvested from wells containing untreated, naïve cells.
To assess PCSK9 secretion, seeded Huh7 cells were co-transfected with mRNA encoding for LTRP5-ADD-ZIM3 and a gRNA with scaffold 316 and spacer targeting the PCSK9 locus using Lipofectamine™ 3000. Two doses of total RNA input at a 2:1 mass ratio of mRNA to gRNA were used for screening: 50 ng mRNA:25 ng gRNA and 25 ng mRNA:12.5 ng gRNA. Media supernatant was harvested at 6 days post-transfection to assess level of PCSK9 secretion by ELISA (Table 74). Levels of PCSK9 secretion were normalized to total cell count. As an additional control, PCSK9 secretion was also measured in the media supernatant harvested from cells transfected with mRNA encoding for mScarlet.

[3] = system: B2M locus; format: cell-based; settings: for B2M repression compared with LTRP5-ZIM3: HEK293T, LTRP5 constructs without ADD domain, scaffold 316 spacer 7.165, days 6/7 to 26/27; for % HLA-negative cells (mean): HEK293T cells, gRNA with B2M-targeting spacer 7.37
[4] = LTRP5-ADD-ZIM3 mRNA + gRNA scaffold 316, 25 ng mRNA:12.5 ng gRNA
[5] = LTRP5-ADD-ZIM3 mRNA + gRNA scaffold 316, 50 ng mRNA:25 ng gRNA

| Molecule | log 2(fold change) of abundance before and after selection [1] | Secreted PCSK9 [2, 4] [ng/mL] | Secreted PCSK9 [2, 5] [ng/mL] | Percent reduction in PCSK9 secretion ([2]; 25 ng mRNA:12.5 ng gRNA) [%] | Percent reduction in PCSK9 secretion ([2]; 50 ng mRNA:25 ng gRNA) [%] | Average percent reduction in PCSK9 secretion [2] [%] | B2M repression compared with LTRP5-ZIM3 [3] | Log2 (fold change) ([1]; fold change in abundance of each domain in the library before and after diphtheria toxin selection, dXR repression of the HBEGF gene, criteria p-value <0.01 and log2(fold change) >2) | % HLA-negative cells (mean) ([3]; 50 days post-transfection) [%] | % HLA-negative cells (mean) ([3]; 73 days post-transfection) [%] |
| --- | --- | --- | --- | --- | --- | --- | --- | --- | --- | --- |
| standard ZNF10: human ZNF10 KRAB domain, SEQ ID NO: 129 [reference compound] | 1.3637 | – | – | – | – | – | – | – | – | – |
| ZIM3: human ZIM3 KRAB domain, SEQ ID NO: 128 [reference compound] | 1.7787 | – | – | – | – | – | – | – | – | – |
| TG-06-155 (guide GCAGCGACGUCGAGGCGCUC; listed as RNA, chemistry not given here) | – | 56.36 | 29.45 | 20.89 | 64.21 | 42.55 | – | – | – | – |
| TG-06-161 (guide GCUCCUGCACAGUCCUCCCC; listed as RNA, chemistry not given here) | – | 53.16 | 29.55 | 25.38 | 64.08 | 44.73 | – | – | – | – |
| TG-06-129 (guide UUUUACACACCAUGUUCAAG; listed as RNA, chemistry not given here) | – | 90.82 | 59.93 | 27.47 | 27.16 | 0.16 | – | – | – | – |
| TG-06-131 (guide UGAACAUGGUGUGUAAAAGG; listed as RNA, chemistry not given here) | – | 57.89 | 28.4 | 18.74 | 65.48 | 42.11 | – | – | – | – |
| TG-06-128 (guide AGAAAUCAACUGGACAAGCA; listed as RNA, chemistry not given here) | – | 62.29 | 42.21 | 12.57 | 48.7 | 30.63 | – | – | – | – |
| TG-06-172 (guide GCUGAAACAGAUGGAAUACU; listed as RNA, chemistry not given here) | – | 59.31 | 44.44 | 16.75 | 45.99 | 31.37 | – | – | – | – |
| TG-06-132 (guide AGAAGAUUCAAUUUGCAAAG; listed as RNA, chemistry not given here) | – | 75.01 | 56.68 | 5.29 | 31.11 | 12.91 | – | – | – | – |
| TG-06-342 (guide AAUUACAGGCAACAGGAAGG; listed as RNA, chemistry not given here) | – | – | – | 5.6 | – | – | – | – | – | – |
| TG-06-140 (guide AAACUUAGCCUGGACCCCCU; listed as RNA, chemistry not given here) | – | 59.94 | 61.68 | 15.87 | 25.04 | 20.45 | – | – | – | – |
| TG-06-117 (guide ACUUUGUUUGCAAAGACCUC; listed as RNA, chemistry not given here) | – | 98.05 | 68.98 | 37.62 | 16.16 | 10.73 | – | – | – | – |
| TG-06-123 (guide UCCCAGUAUCGACAGCCCUU; listed as RNA, chemistry not given here) | – | 51.32 | 30.49 | 27.97 | 62.95 | 45.46 | – | – | – | – |
| DOMAIN_26749: repressor domain derived from the king cobra, Ophiophagus hannah; SEQ ID NO: 135 (protein, Ophiophagus hannah) STPVTFEDVVVYFTAAEWVHLTNWQRDFYQAVMMETYELVASVAGDGVPMAEDEEGGVERPVWQYIPRGKRRRKTPQPRAD | highest log 2 (fold change) | – | – | – | – | – | most effective | – | – | – |
| DOMAIN_29304: one of the top nine most effective repressor domains (protein, listed as Peromyscus maniculatus) VTYNDVHVDITQEEWALMDPSQRNLYKDVMVETYMNLTAIGYNWENLEVEEPCQNPLKHGRHERPHTGEKPYEYNQCGKAFAQP | – | – | – | – | – | – | most effective | 4.0496 | – | – |
| dCasX491: catalytically-dead CasX variant, SEQ ID NO: 4 (protein) QEIKRINKIRRRLVKDSNTKKAGKTGPMKTLLVRVMTPDLRERLENLRKKPENIPQPISNTSRANLNKLLTDYTEMKKAILHVYWEEFQKDPVGLMSRVAQPASKKIDQNKLKPEMDEKGNLTTAGFACSQCGQPLFVYKLEQVSEKGKAYTNYFGRCNVAEHEKLILLAQLKPEKDSDEAVTYSLGKFGQRALDFYSIHVTKESTHPVKPLAQIAGNRYASGPVGKALSDACMGTIASFLSKYQDIIIEHQKVVKGNQKRLESLRELAGKENLEYPSVTLPPQPHTKEGVDAYNEVIARVRMWVNLNLWQKLKLSRDDAKPLLRLKGFPSFPLVERQANEVDWWDMVCNVKKLINEKKEDGKVFWQNLAGYKRQEALRPYLSSEEDRKKGKKFARYQLGDLLLHLEKKHGEDWGKVYDEAWERIDKKVEGLSKHIKLEEERRSEDAQSKAALTDWLRAKASFVIEGLKEADKDEFCRCELKLQKWYGDLRGKPFAIEAENSILDISGFSKQYNCAFIWQKDGVKKLNLYLIINYFKGGKLRFKKIKPEAFEANRFYTVINKKSGEIVPMEVNFNFDDPNLIILPLAFGKRQGREFIWNDLLSLETGSLKLANGRVIEKTLYNRRTRQDEPALFVALTFERREVLDSSNIKPMNLIGVARGENIPAVIALTDPEGCPLSRFKDSLGNPTHILRIGESYKEKQRTIQAKKEVEQRRAGGYSRKYASKAKNLADDMVRNTARDLLYYAVTQDAMLIFANLSRGFGRQGKRTFMAERQYTRMEDWLTAKLAYEGLSKTYLSKTLAQYTSKTCSNCGFTITSADYDRVLEKLKKTATGWMTTINGKELKVEGQITYYNRYKRQNVVKDLSVELDRLSEESVNNDISSWTKGRSGEALSLLKKRFSHRPVQEKFVCLNCGFETHAAEQAALNIARSWLFLRSQEYKKYQTNKTTGNTDKRAFVETWQSFYRKKLKEVWKPAV | – | – | – | – | – | – | – | – | 0.49 | 0.83 |
